Reference: publication PMC12030359, “Fluorine-18-Labeled Positron Emission Tomography Probe Targeting Activated p38α: Design, Synthesis, and In Vivo Evaluation in Rodents” (Pharmaceuticals, 2025)

How the values were obtained:
[1] = parameters: method as in PMID 21375264; conditions: cited from earlier work
[2] = parameters: method as in PMID 21375264; conditions: acute and chronic toxicity tests in rats; cited from earlier work
[3] = test system: TNF-α and IL-6 production; parameters: method as in PMID 21375264; conditions: following oral administration; cited from earlier work
[4] = In vitro stability analysis in mouse plasma; format: in vitro ADME; conditions: 2 h incubation in mouse plasma at 37 °C, normal-phase TLC
[5] = Biodistribution study after intravenous administration in normal ddY mice; format: in vivo
Experimental: Mice (n = 20, 5 weeks old, 23–29 g) were randomly assigned to five groups (n = 4 each). […] Sample size was limited to four animals per group in adherence to ethical guidelines for the reduction of animal use. Target tissues, including BAT, blood, muscle, bone, brain, heart, lung, stomach, pancreas, spleen, kidneys, liver, and small and large intestines, were excised and weighed, and the radioactivity of each tissue was measured using a γ-counter. The accumulation of radioactivity was expressed as the percentage of the injected dose per gram of tissue (%ID/g) for all tissues except for the stomach, for which it was expressed as the percentage of the injected dose per organ (%ID).

[6] = PET/CT imaging of BAT in normal mouse; format: in vivo, ddY mice
Experimental: A small-animal PET/SPECT/CT scanner (E-Class VECTor^6CT^SD, MILabs, Utrecht, The Netherlands) was used, and it was equipped with a high-efficiency general purpose rat and mouse collimator. After the PET imaging, CT imaging was performed (exposure time: 40 ms, tube voltage: 55 kv, tube current: 0.33 mA). After the CT imaging, the mice were immediately euthanized under anesthesia, their BAT was removed and weighed, and its radioactivity was measured (n = 1). The raw data obtained from the PET scan were reconstructed using the SROSEM method and superimposed onto the CT images. […] The SUVs were then calculated using Amide software 1.0.6 (Slashdot Media, San Francisco, CA, USA).

[7] = Log D measurement (1-octanol/PBS); format: physicochemical; conditions: 1-octanol/PBS (pH = 7.4), room temperature
Experimental: The mixture was shaken for 10 min at room temperature, followed by centrifugation at 10,000 rpm for 10 min. The radioactivity in each phase was measured using a γ counter.

activated p38α = test system: activated p38α; parameters: method as in PMID 34410619, PMID 35760973; conditions: cited from earlier work
[8] = 5 min after i.v. administration
[9] = 15 min after i.v. administration
[10] = 30 min after i.v. administration
[11] = 60 min after i.v. administration
[12] = 120 min after i.v. administration

Cn1c(=O)c(Oc2ccc(F)cc2F)cc2cnc(NC3CCOCC3)nc21 [R1487, 6-(2,4-difluorophenoxy)-8-methyl-2-(tetrahydro-2H-pyran-4-ylamino)pyrido [2,3-d]pyrimidin-7(8H)-one]
clearance route [1]: predominantly hepatic clearance | oral bioavailability ([1]; monkeys, oral administration): 51.6% | half-life in blood ([1]; monkeys): 22.5 h | acceptable tolerability, no severe adverse events [2]: up to 10 mg/kg | production of TNF-α and IL-6 [3]: suppress

Cn1c(=O)c(Oc2ccc([18F])cc2F)cc2cnc(NC3CCOCC3)nc21 [[^18F]R1487, 6-(4-[^18F]fluoro-2-fluorophenoxy)-8-methyl-2-(tetrahydro-2H-pyran-4-ylamino)-pyrido[2,3-d]pyrimidin-7(8H)-one]
radioactivity detected in intact form [4]: more than 96% | Radioactivity in BAT [5, 8]: 16.3 ± 2.7 %ID/g | Radioactivity in Blood [5, 8]: 2.8 ± 0.1 %ID/g | Radioactivity in Bone [5, 8]: 6.4 ± 0.7 %ID/g | Radioactivity in Brain [5, 8]: 2.9 ± 0.5 %ID/g | Radioactivity in Heart [5, 8]: 5.0 ± 0.8 %ID/g | Radioactivity in Kidney [5, 8]: 7.7 ± 1.9 %ID/g | Radioactivity in Large intestine [5, 8]: 2.2 ± 0.7 %ID/g | Radioactivity in Liver [5, 8]: 11.3 ± 1.9 %ID/g | Radioactivity in Lung [5, 8]: 4.0 ± 0.6 %ID/g | Radioactivity in Muscle [5, 8]: 2.7 ± 0.5 %ID/g | Radioactivity in Pancreas [5, 8]: 4.4 ± 0.9 %ID/g | Radioactivity in Small intestine [5, 8]: 5.8 ± 1.0 %ID/g | Radioactivity in Spleen [5, 8]: 4.0 ± 0.9 %ID/g | Radioactivity in Stomach [5, 8]: 1.1 ± 0.2 %ID | Radioactivity in BAT [5, 9]: 8.0 ± 2.6 %ID/g | Radioactivity in Blood [5, 9]: 1.0 ± 0.2 %ID/g | Radioactivity in Bone [5, 9]: 5.1 ± 0.9 %ID/g | Radioactivity in Brain [5, 9]: 1.3 ± 0.6 %ID/g | Radioactivity in Heart [5, 9]: 2.8 ± 0.5 %ID/g | Radioactivity in Kidney [5, 9]: 5.1 ± 1.3 %ID/g | Radioactivity in Large intestine [5, 9]: 2.3 ± 0.4 %ID/g | Radioactivity in Liver [5, 9]: 5.9 ± 1.3 %ID/g | Radioactivity in Lung [5, 9]: 3.2 ± 0.8 %ID/g | Radioactivity in Muscle [5, 9]: 2.4 ± 0.3 %ID/g | Radioactivity in Pancreas [5, 9]: 2.4 ± 0.6 %ID/g | Radioactivity in Small intestine [5, 9]: 8.6 ± 1.9 %ID/g | Radioactivity in Spleen [5, 9]: 4.5 ± 0.8 %ID/g | Radioactivity in Stomach [5, 9]: 1.3 ± 0.5 %ID | Radioactivity in BAT [5, 10]: 5.2 ± 1.1 %ID/g | Radioactivity in Blood [5, 10]: 0.7 ± 0.1 %ID/g | Radioactivity in Bone [5, 10]: 6.7 ± 1.0 %ID/g | Radioactivity in Brain [5, 10]: 1.0 ± 0.6 %ID/g | Radioactivity in Heart [5, 10]: 2.3 ± 0.7 %ID/g | Radioactivity in Kidney [5, 10]: 3.5 ± 0.6 %ID/g | Radioactivity in Large intestine [5, 10]: 4.3 ± 3.7 %ID/g | Radioactivity in Liver [5, 10]: 4.7 ± 0.9 %ID/g | Radioactivity in Lung [5, 10]: 2.3 ± 0.5 %ID/g | Radioactivity in Muscle [5, 10]: 2.1 ± 0.2 %ID/g | Radioactivity in Pancreas [5, 10]: 1.9 ± 0.1 %ID/g | Radioactivity in Small intestine [5, 10]: 16.9 ± 4.0 %ID/g | Radioactivity in Spleen [5, 10]: 3.3 ± 0.5 %ID/g | Radioactivity in Stomach [5, 10]: 1.8 ± 0.4 %ID | Radioactivity in BAT [5, 11]: 2.2 ± 0.6 %ID/g | Radioactivity in Blood [5, 11]: 0.4 ± 0.1 %ID/g | Radioactivity in Bone [5, 11]: 6.9 ± 2.9 %ID/g | Radioactivity in Brain [5, 11]: 0.4 ± 0.2 %ID/g | Radioactivity in Heart [5, 11]: 1.4 ± 0.1 %ID/g | Radioactivity in Kidney [5, 11]: 2.4 ± 0.7 %ID/g | Radioactivity in Large intestine [5, 11]: 4.3 ± 1.6 %ID/g | Radioactivity in Liver [5, 11]: 3.4 ± 0.3 %ID/g | Radioactivity in Lung [5, 11]: 1.3 ±0.2 %ID/g | Radioactivity in Muscle [5, 11]: 1.0 ± 0.1 %ID/g | Radioactivity in Pancreas [5, 11]: 1.0 ± 0.1 %ID/g | Radioactivity in Small intestine [5, 11]: 23.8 ± 3.7 %ID/g | Radioactivity in Spleen [5, 11]: 1.7 ± 0.4 %ID/g | Radioactivity in Stomach [5, 11]: 4.1 ± 2.2 %ID | Radioactivity in BAT [5, 12]: 1.0 ± 0.2 %ID/g | Radioactivity in Blood [5, 12]: 0.2 ± 0.0 %ID/g | Radioactivity in Bone [5, 12]: 8.7 ± 2.3 %ID/g | Radioactivity in Brain [5, 12]: 0.2 ± 0.1 %ID/g | Radioactivity in Heart [5, 12]: 0.7 ± 0.1 %ID/g | Radioactivity in Kidney [5, 12]: 0.7 ± 0.1 %ID/g | Radioactivity in Large intestine [5, 12]: 32.6 ± 8.7 %ID/g | Radioactivity in Liver [5, 12]: 1.8 ± 0.9 %ID/g | Radioactivity in Lung [5, 12]: 0.4 ± 0.1 %ID/g | Radioactivity in Muscle [5, 12]: 0.5 ± 0.0 %ID/g | Radioactivity in Pancreas [5, 12]: 1.0 ± 0.4 %ID/g | Radioactivity in Small intestine [5, 12]: 13.0 ± 3.4 %ID/g | Radioactivity in Spleen [5, 12]: 0.9 ± 0.1 %ID/g | Radioactivity in Stomach [5, 12]: 1.2 ± 0.5 %ID | time of peak radioactivity in BAT ([5]; post-injection): 5 min | mean standardized uptake value (SUV) in the BAT ([6]; PET 10–15 min post-intravenous administration, manual ROI): 4.7 | radioactivity in the excised BAT after PET/CT imaging ([6]; γ counter, immediately after PET/CT imaging, n = 1): 11.6 %ID/g | logD [7]: 2.2

Cn1c(=O)c(Oc2ccc([77Br])cc2F)cc2cnc(NC3CCOCC3)nc21 [[^77Br]4-BR, 6-(4-[^77Br]bromo-2-fluorophenoxy)-8-methyl-2-(tetrahydro-2H-pyran-4-ylamino)-pyrido[2,3-d]pyrimidin-7(8H)-one]
inflamed site-to-blood ratio (activated p38α; at 2 h): 4.1 | time of peak radioactivity accumulation in inflamed tissues (activated p38α; post-injection): 15 min
